Measured values: patent US11827628B2, “Compositions and methods for inhibition of the JAK pathway” (Rigel Pharmaceuticals, Inc., priority 2005, dated 2023)
Structures can show the parent of a compound that is named as a salt.

Each compound was assayed on IL-4 stimulated expression of CD23 in human Ramos B cells (JAK-1 and JAK-3) (assay: Assay for Ramos B-Cell Line Stimulated with IL-4 (CD23 upregulation, FACS)). Details: Homo sapiens, Ramos, Ramos B cells stimulated with IL-4, CD23 expression by FACS; read-out: IC50, Example 41.
Assay type: cell-based
Procedure, shortened: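 Log-phase Ramos cells, 1 h compound pre-incubation at 37 °C; IL-4 50 units/mL final, 20-24 h; CD23-PE stain, FACS; IC50.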

IC50	SMILES
2030 nM	Cc1ccc2cccc(Nc3nc(Nc4ccc(C)c(S(N)(=O)=O)c4)ncc3F)c2n1 [VII-80, N2-(3-Aminosulfonyl-4-methylphenyl)-5-fluoro-N4-(2-methylquinolin-8-yl)-2,4-pyrimidinediamine]
36200 nM	COC(=O)[C@@H]1C[C@H](Nc2nc(Nc3ccc(C)c(S(N)(=O)=O)c3)ncc2F)CN1C(=O)CC#N [VII-2, N2-(3-Aminosulfonyl-4-methylphenyl)-N4-[(2S,4S)-1-(2-cyanoacetyl)-2-methoxycarbonylpyrrolidin-4-yl]-5-fluoro-2,4-pyrimidinediamine]
2310 nM	Cc1ccc(Nc2ncc(F)c(Nc3ccc(C(=O)N4CCS(=O)(=O)CC4)cc3)n2)cc1S(N)(=O)=O [IX-38, N2-(3-Aminosulfonyl-4-methylphenyl)-N4-[4-(1,1-dioxo-4-thiomorpholinyl)carbonylphenyl]-5-fluoro-2,4-pyrimidinediamine]
8250 nM	CCN(CC)S(=O)(=O)c1ccc(OC)c(Nc2nc(Nc3ccc(Cl)c(Cl)c3)cc(C(=O)OC)n2)c1 [Compound X-1, 6-carbonylmethoxy-N4-(3,4-dichlorophenyl)-N2-(3-N,N-diethylaminosulfonyl-6-methoxyphenyl)-2,4-pyrimidinediamine]
3010 nM	CCCCNS(=O)(=O)c1cccc(Nc2ncc(F)c(Nc3ccc(F)c(Cl)c3)n2)c1 [VI-97, N2-(3-Butylaminosulfonylphenyl)-N4-(3-chloro-4-fluorophenyl)5-fluoro-2,4-pyrimidinediamine]
3170 nM	C#CCNS(=O)(=O)c1cccc(Nc2nc(Nc3cccc(S(N)(=O)=O)c3)ncc2F)c1 [VI-81, N2-(3-Aminosulfonylphenyl)-5-fluoro-N4-[3-(prop-2-ynylaminosulfonyl)phenyl]-2,4-pyrimidinediamine]
240 nM	CNS(=O)(=O)c1ccc(Nc2ncc(F)c(Nc3ccc(OC(F)(F)F)c(Cl)c3)n2)cc1OC [IX-53, N4-(3-Chloro-4-trifluoromethoxyphenyl)-5-fluoro-N2-[4-(N-methyl)aminosulfonyl-3-methoxyphenyl]-2,4-pyrimidinediamine]
663 nM	CCCN(c1ccc(OC)c(Cl)c1)c1nc(Nc2ccc(C)c(S(N)(=O)=O)c2)ncc1F [VI-22, N2-(3-Aminosulfonyl-4-methylphenyl)-N4-(3-chloro-4-methoxyphenyl)-5-fluoro-N4-propyl-2,4-pyrimidinediamine]
96 nM	C#CCNS(=O)(=O)c1cccc(Nc2nc(Nc3ccc(C)c(S(N)(=O)=O)c3)ncc2F)c1 [VI-79, N2-(3-Aminosulfonyl-4-methylphenyl)-5-fluoro-N4-[3-(prop-2-ynylaminosulfonyl)phenyl]-2,4-pyrimidinediamine]
623 nM	O=S(=O)(c1ccc(Nc2ncc(F)c(Nc3ccc4c(c3)OCCO4)n2)cc1)N1CCCC1 [VII-24, N4-(3,4-Ethylenedioxyphenyl)-5-fluoro-N2-[4-(pyrrolidin-1-ylsulfonyl)phenyl]-2,4-pyrimidinediamine]
700 nM	NS(=O)(=O)c1cccc(Nc2ncc(F)c(Nc3cccc(S(N)(=O)=O)c3)n2)c1 [VI-113, N2,N4-Bis-(3-aminosulfonylphenyl)-5-fluoro-2,4-pyrimidinediamine]
1030 nM	COc1ccc(N(C)c2nc(Nc3ccc(C)c(S(N)(=O)=O)c3)ncc2F)cc1Cl [VI-19, N2-(3-Aminosulfonyl-4-methylphenyl)-N4-(3-chloro-4-methoxyphenyl)-5-fluoro-N4-methyl-2,4-pyrimidinediamine]

Same assay, conditions: Homo sapiens, Ramos, Ramos B-cell line stimulated with IL-4; CD23 expression by FACS; read-out: IC50, Example 41

IC50	SMILES
1250 nM	COc1cc(Nc2nc(Nc3ccc(S(N)(=O)=O)cc3)ncc2F)ccc1OCC(N)=O [Compound I-103, N4-(4-Aminocarbonylmethoxy-3-methoxyphenyl)-N2-(4-aminosulfonylphenyl)-5-fluoro-2,4-pyrimidinediamine]
364 nM	CNC(=O)COc1ccc(Nc2nc(Nc3ccc(S(N)(=O)=O)cc3)ncc2F)cc1Cl [Compound I-146, N2-(4-Aminosulfonylphenyl)-N4-(3-chloro-4-methylaminocarbonylmethoxyphenyl)-5-fluoro-2,4-pyrimidinediamine]
871 nM	CN(C)C(=O)COc1ccc(Nc2nc(Nc3ccc(S(N)(=O)=O)cc3)ncc2F)cc1 [Compound I-128, N2-(4-Aminosulfonylphenyl)-N4-(4-dimethylaminocarbonylmethoxyphenyl)-5-fluoro-2,4-pyrimidinediamine]

Same assay, conditions: Ramos B cells stimulated with IL-4, CD23 expression by FACS; read-out: IC50, Example 41

IC50	SMILES
2490 nM	Cc1ccc(Nc2ncc(F)c(NC3CNCCC3C)n2)cc1S(N)(=O)=O (racemic) [VII-4, Racemic N2-(3-aminosulfonyl-4-methylphenyl)-5-fluoro-N4-(4-methylpiperidin-3-yl)-2,4-pyrimidinediamine]
9910 nM	CCOC(=O)CN(c1ccc(OC)c(Cl)c1)c1nc(Nc2ccc(C)c(S(N)(=O)=O)c2)ncc1C(=O)OCC [VI-25, N2-(3-Aminosulfonyl-4-methylphenyl)-5-carboethoxy-N4-(N-carboethoxymethylene-N-3-chloro-4-methoxyphenyl)-2,4-pyrimidinediamine]
539 nM	CCNC(=O)NCCc1ccc(Nc2nc(Nc3ccc(S(N)(=O)=O)cc3)ncc2F)cc1 [III-122, N2-(4-aminosulfonyl)phenyl-N4-[4-(2-ethylaminocarbonylamino)ethyl]phenyl-5-fluoro-2,4-pyrimidinediamine]
961 nM	CN1C(=O)C(C)(C)S(=O)(=O)c2ccc(Nc3nc(Nc4ccc(S(N)(=O)=O)cc4)ncc3F)cc21 [VII-46, N2-(4-Aminosulphonylphenyl)-5-fluoro-N4-(2,2,4-trimethyl-1,1,3-trioxo-benzo[1,4]thiazin-6-yl)-2,4-pyrimidinediamine]
696 nM	COc1ccc(CN2C(=O)C(C)Oc3ccc(Nc4nc(Nc5cccc(S(N)(=O)=O)c5)ncc4F)cc32)cc1 (racemic) [Compound V-5, Racemic N2-(3-Aminosulphonylphenyl)-5-fluoro-N4-[2-methyl-3-oxo-4-(4-methoxybenzyl)-benz[1,4]oxazin-6-yl]-2,4-pyrimidinediamine]
295 nM	CCNC(=O)NCCc1ccc(Nc2nc(Nc3ccc(C)c(S(N)(=O)=O)c3)ncc2F)cc1 [III-124, N2-(3-aminosulfonyl-4-methyl)phenyl-N4-[4-(2-ethylaminocarbonylamino)ethyl]phenyl-5-fluoro-2,4-pyrimidinediamine]

Same assay, conditions: Ramos B-cell line stimulated with IL-4; CD23 expression by FACS; read-out: IC50, Example 41

IC50	SMILES
451 nM	CCOc1cc(Nc2nc(Nc3ccc(C)c(S(=O)(=O)NC)c3)ncc2F)ccc1-c1ccccn1 [Compound I-170, 5-Fluoro-N2-[3-N-(methyl)aminosulfonyl-4-methylphenyl]-N4-[4-(2-pyridinyl)-3-methylmethyleneoxyphenyl]-2,4-pyrimidinediamine]
1080 nM	NC(=O)COc1cccc(Nc2nc(Nc3cccc(S(N)(=O)=O)c3)ncc2F)c1 [Compound I-88, N4-(3-Aminocarbonylmethoxy)phenyl-N2-(3-aminosulfonyl)phenyl-5-fluoro-2,4-pyrimidinediamine]
3810 nM	CCC(=O)NS(=O)(=O)c1cc(Nc2ncc(F)c(Nc3ccc(OCc4cc(C)on4)cc3)n2)ccc1C [Compound I-228, 5-Fluoro-N4-[4-(5-methylisoxazol-3-yl)methyleneoxyphenyl]-N2-(4-methyl-3-propionylaminosulfonylphenyl)-2,4-pyrimidinediamine]
780 nM	CNS(=O)(=O)c1ccc(Nc2ncc(F)c(Nc3cccc(O)c3)n2)cc1OC [Compound I-270]
13 nM	Cc1cnc(Nc2ccc(S(N)(=O)=O)cc2)nc1Nc1ccc(OCc2ccccn2)cc1 [Compound I-181, N2-(4-Aminosulfonylphenyl)-5-methyl-N4-[4-(2-pyridinyl)methyleneoxyphenyl]-2,4-pyrimidinediamine]
323 nM	CNS(=O)(=O)c1cc(Nc2ncc(F)c(Nc3ccc(Oc4cccnc4)cc3)n2)ccc1C [II-13, 5-Fluoro-N2-[3-N-(methylaminosulfonyl)-4-methylphenyl]-N4-[4-(3-pyridyloxy)phenyl]-2,4-pyrimidinediamine]
538 nM	CC(C)(Oc1ccc(Nc2nc(Nc3ccc(S(N)(=O)=O)cc3)ncc2F)cc1)C(N)=O [Compound I-125, N4-[4-(1-Aminocarbonyl-1-methyl)ethoxy]phenyl-N2-(4-aminosulfonyl)phenyl-5-fluoro-2,4-pyrimidinediamine]
3080 nM	Cc1ccc(Nc2ncc(F)c(Nc3ccc(OCc4n[nH]c(=O)[nH]4)cc3)n2)cc1S(N)(=O)=O [Compound I-202, N2-(3-Aminosulfonyl-4-methylphenyl)-5-fluoro-N4-[4-(2,4-dihydro-3-oxo-1,2,4-triazol-5-yl)methyleneoxyphenyl]-2,4-pyrimidinediamine]
1080 nM	CCC(=O)NCc1ccc(Nc2nc(Nc3ccc(S(N)(=O)=O)cc3)ncc2F)cc1 [III-35, N2-(4-aminosulfonyl)phenyl-N4-(4-ethylcarbonylaminomethyl)phenyl-5-fluoro-2,4-pyrimidinediamine]
2360 nM	CN1CCN(S(=O)(=O)c2cccc(Nc3ncc(F)c(Nc4ccc(OCC(N)=O)cc4)n3)c2)CC1 [Compound I-112, N4-(4-Aminocarbonylmethoxy)phenyl-5-fluoro-N2-[3-(4-methylpiperazin-1-yl)sulfonyl]phenyl-2,4-pyrimidinediamine]

Same assay, conditions: Ramos B-cell line stimulated with IL-4; CD23 expression by FACS; sodium salt; read-out: IC50, Example 41

IC50	SMILES
4630 nM	CCC(=O)NS(=O)(=O)c1cc(Nc2ncc(F)c(Nc3ccc(OCC#N)cc3)n2)ccc1C [Compound I-31, N4-(4-Cyanomethyleneoxy)phenyl-5-fluoro-N2-(4-methyl-3-propionylaminosulfonyl)phenyl-2,4-pyrimidinediamine sodium salt]
3320 nM	CCC(=O)NS(=O)(=O)c1cccc(Nc2ncc(F)c(Nc3ccc(Cc4ccncc4)cc3)n2)c1 [III-69, 5-Fluoro-N4-[4-(4-pyridinylmethyl)phenyl]-N2-[(3-N-propanamido)sulfonylphenyl)]-2,4-pyrimidinediamine sodium salt]
